The record followed here is US20120077705A1, “Methods for Identifying Autophagy Inducing Compounds” (President and Fellows of Harvard College, priority 2007, published 2012).

What all share (format): cell-based
For one assay, the system named is FYVE-RFP. In words: High-content analysis of FYVE-RFP fluorescence (PI(3)P level) in H4-FYVE cell line. The settings on record: H4-FYVE cells. An excerpt: Class III PI(3)K Vps34 is a multifunctional protein. On the one hand, it catalyzes the phosphorylation of PI to generate PI(3)P and is of key importance in the endocytic and autophagosome membrane transport processes. At the same time, a compound formed from Vps34/beclin1 is involved in the regulation of autophagy initiation signaling. Therefore, while the autophagy process is taking place, the level of PtdIns(3)P should not be expected to decrease to a significant extent. A FYVE domain is a protein structure domain composed of approximately 70 amino acid residues and containing a zinc finger protein structure; it can bind specifically with PI(3)P. Generally, PI(3)P recruits proteins containing a FYVE domain in order to bind to the membrane of cellular organelles, and participate in protein trafficking and similar processes.
H4 cells were transfected with the fusion protein FYVP-red fluorescent protein (FYVE-RFP). After transfection, the cells were screened in order to obtain a suitable H4-FYVE cell line to be used as a screening platform to perform high-volume screening of compounds, which thereby indirectly reflected the effect of the compound on autophagy. Compounds which reduced FYVE-RFP fluorescence intensity were eliminated. In this experiment, change in the intensity, fluorescence and distribution of the protein marker FYVE-RFP recruited by PI(3)P before and after treatment with the potential autophagy inducing compound was assayed by high-content microscopic analysis.
DMSO was used to dilute, dissolve, and prepare a compound at different concentrations with each concentration repeated three times. A 96-well plate was inoculated with H4-FYVE cells at an appropriate density and treated with the compound for 2, 4, and 8 hours, respectively. […] If a compound affected FYVE expression or distribution, then this would be embodied precisely in the image and in the size and intensity of fluorescent spots and other numerical values.

Another assay concerns GFP-polyQ-HA. In words: Degradation of expanded polyglutamine (GFP-polyQ-HA) in transfected H4 cells, anti-HA blot. The following applies: H4 cells transfected with GFP-polyQ-HA, 24 hours, screening concentration and dilutions 1:2.5, 1:5, 1:10, FIG. 2. As to the method: Large-scale accumulation of misfolded protein is a prominent feature of many neurodegenerative diseases. For example, the pathogenic mechanism of Huntington's disease is that a large amount of polyglutamine (polyQ) protein accumulates in the neurons and cannot be cleared away. Tests of polyQ elimination and degradation were used in this experiment to further determine the ability if the tested compounds to induce autophagy.
The compounds selected through screening were dissolved in DMSO and diluted in a stepwise manner in complete culture medium.

For another assay, the system named is LC3 II. In words: Western blot of LC3 II in H4-LC cells. The source says:
The autophagosome marker LC3 used in the compound-screening platform was subjected to the foregoing processing in the cytosol. Generally when the new LC3 synthesized within the cell was processed, it became cytosolic soluble LC3 I with molecular weight 18 Kd. […] The quantity of LC3 II content reflects to a certain degree the autophagic activity of a cell. Therefore, by assaying the content of LC3 II in the cell by means of the Western blot method, it is possible to further reflect the effect of the compound on autophagy.
H4-LC cells at an appropriate density were inoculated onto a 6-well plate, which was treated with a compound for 4 hours, after which the cells were collected and lysed. The protein fraction was harvested and SDS-PAGE was performed. Following electrophoresis separation the proteins were transferred to a membrane, and immunoblot analysis was performed. The cytoskeleton protein, actin, was used as an internal control.
In general terms: In western blotting, separated proteins are transferred to a membrane and probed.

Non-standard residues stand in square brackets, D forms with d. Residues, ends and D or L forms follow the SMILES beside them. Nle = CCCC[C@H](N)C(=O)O

Turning to `CN(CCc1ccc(Cl)c(Cl)c1)CC(O)COc1ccc(NS(C)(=O)=O)cc1` (stereo not drawn) [AM 92016], the “Relative fluorescent intensity of FYVE-RFP (%)” value in the assay on FYVE-RFP (2 h) stood at 68.06 ± 1.20%; in the assay on FYVE-RFP (4 h), 71.97 ± 15.67%; with FYVE-RFP (8 h) it was 66.35 ± 17.66%.
On to `COC(=O)C1=C(C)NC(C)=C([N+](=O)[O-])C1c1ccccc1C(F)(F)F` (stereo not drawn) [Bay K-8644], for which the “Relative fluorescent intensity of FYVE-RFP (%)” value was found to be 110.18 ± 25.18% in the assay with FYVE-RFP (2 h), 57.79 ± 3.76% in the assay on FYVE-RFP (4 h) and 79.70 ± 7.28% with FYVE-RFP (8 h).
Taken in the same sequence, the figures for `CCCNC(=O)[C@H]1O[C@@H]1C(=O)N[C@H](C(=O)N1CCC[C@H]1C(=O)OC)[C@@H](C)CC` [CA-074-Me] were 65.94 ± 12.73%, 79.82 ± 4.66% and 86.43 ± 4.15%.
For `CC/C(=C(\c1ccccc1)c1ccc(OCCN(C)C)cc1)c1ccccc1` [Tamoxifen], in that order: 77.66 ± 4.43%, 71.55 ± 0.73% and 85.37 ± 7.59%.
For `CC(C)(O)[C@H]1O[C@H]2CC[C@@]3(C)[C@@](O)(CC[C@H]4Cc5c([nH]c6ccccc56)[C@@]43C)C2=CC1=O` [Paxilline], in that order: 100.56 ± 0.58%, 52.37 ± 1.65% and 56.82 ± 4.44%.
Consider `CCCNCC(O)COc1ccccc1C(=O)CCc1ccccc1` (stereo not drawn) [Propafenone], for which the “Relative fluorescent intensity of FYVE-RFP (%)” value in the assay with FYVE-RFP (2 h) is 114.69 ± 8.90%; with FYVE-RFP (4 h), 78.75 ± 18.93%; with FYVE-RFP (8 h), 62.87 ± 3.38%.
For `O=C(/C=C/c1ccc(O)c(O)c1)OCCc1ccccc1` [CAPE], the “Relative fluorescent intensity of FYVE-RFP (%)” value was determined as 86.89 ± 20.98% in the assay on FYVE-RFP (2 h), 71.17 ± 18.70% in the assay with FYVE-RFP (4 h) and 69.14 ± 4.32% in the assay with FYVE-RFP (8 h).
As for `CC1=C2C[C@H]3[C@@H](CC=C4C[C@@H](O)CC[C@@]43C)[C@@H]2CC[C@]12O[C@@H]1C[C@H](C)CN[C@H]1[C@H]2C` [Cyclopamine], the “Relative fluorescent intensity of FYVE-RFP (%)” value with FYVE-RFP (2 h) came out at 108.75 ± 12.44%; with FYVE-RFP (4 h), 75.21 ± 1.18%; in the assay with FYVE-RFP (8 h), 96.38 ± 5.12%.
Turning to `COC(=O)c1c(C)[nH]c(C)c1C(=O)c1ccccc1Cc1ccccc1` [FPL-64176], the figures for the “Relative fluorescent intensity of FYVE-RFP (%)” value in the assay with FYVE-RFP (2 h), in the assay with FYVE-RFP (4 h) and with FYVE-RFP (8 h) were 99.43 ± 9.62%, 78.17 ± 1.90% and 87.62 ± 2.42%, respectively.
`CC[C@H](C)[C@H](NS(=O)(=O)c1ccc2ccccc2c1)C(=O)N[C@H](C=O)Cc1c[nH]c2ccccc12` [NapSul-Ile-Trp-CHO]: the figures for the “Relative fluorescent intensity of FYVE-RFP (%)” value with FYVE-RFP (2 h), in the assay with FYVE-RFP (4 h) and in the assay with FYVE-RFP (8 h) were 89.37 ± 3.52%, 64.10 ± 11.47% and 62.34 ± 8.21%, respectively.
Turning to `CO[C@@H]1C[C@@H](C[C@H]2CC[C@H](C)[C@H]([C@@H](C)C(=O)O)O2)O[C@]2(O[C@](C)([C@H]3CC[C@@](C)([C@@H]4O[C@@H]([C@H]5O[C@@](O)(CO)[C@H](C)C[C@@H]5C)C[C@@H]4C)O3)C[C@H]2C)[C@@H]1C` [Nigericin], the entries for the “Relative fluorescent intensity of FYVE-RFP (%)” value in the assay on FYVE-RFP (2 h), with FYVE-RFP (4 h) and in the assay on FYVE-RFP (8 h) were 148.43 ± 5.17%, 145.40 ± 8.39% and 140.54 ± 18.21%, respectively.
As to `N#Cc1cc2c(OCC(O)CN3CCN(C(c4ccccc4)c4ccccc4)CC3)cccc2[nH]1` (stereo not drawn) [SDZ-201106], the “Relative fluorescent intensity of FYVE-RFP (%)” value in the assay with FYVE-RFP (2 h) is 65.87 ± 4.72%; in the assay with FYVE-RFP (4 h), 59.79 ± 2.38%; in the assay with FYVE-RFP (8 h) it was 72.40 ± 20.27%.
Take `O=C1NCN(c2ccccc2)C12CCN(CCCC(c1ccc(F)cc1)c1ccc(F)cc1)CC2` [Fluspirilene]: the polyQ degradation result in the assay with GFP-polyQ-HA is on record as “increased polyQ degradation”.
Regarding `C=C[C@H]1C[N@@]2CC[C@H]1C[C@H]2[C@H](O)c1ccnc2ccc(OC)cc12` [Quinine], the figures for the “Relative fluorescent intensity of FYVE-RFP (%)” value in the assay on FYVE-RFP (2 h), in the assay with FYVE-RFP (4 h) and in the assay on FYVE-RFP (8 h) were 70.35 ± 10.23%, 78.03 ± 6.33% and 60.70 ± 6.59%, respectively.
Turning to `CCN(CC)CCCCCCCCOC(=O)c1cc(OC)c(OC)c(OC)c1` [TMB-8], the “Relative fluorescent intensity of FYVE-RFP (%)” value amounted to 89.59 ± 4.79% in the assay on FYVE-RFP (2 h), 74.72 ± 13.74% in the assay on FYVE-RFP (4 h) and 78.64 ± 10.26% with FYVE-RFP (8 h).
`CO[C@H]1C[C@@H]2CC[C@@H](C)[C@@](O)(O2)C(=O)C(=O)N2CCCC[C@H]2C(=O)O[C@H]([C@H](C)C[C@@H]2CC[C@@H](O)[C@H](OC)C2)CC(=O)[C@H](C)/C=C(\C)[C@@H](O)[C@@H](OC)C(=O)[C@H](C)C[C@H](C)/C=C/C=C/C=C/1C` [Rapamycin]: the “Relative fluorescent intensity of FYVE-RFP (%)” value in the assay with FYVE-RFP (4 h) turned out to be 131.41 ± 26.64%.
For `COC(=O)[C@@]1(O)C[C@H]2O[C@]1(C)n1c3ccccc3c3c4c(c5c6ccccc6n2c5c31)C(=O)NC4` [K252A], the “Relative fluorescent intensity of FYVE-RFP (%)” value was 76.86 ± 6.51% with FYVE-RFP (2 h), 65.58 ± 9.36% in the assay on FYVE-RFP (4 h) and 70.33 ± 5.89% with FYVE-RFP (8 h).
As to `CCCC[C@@H](C=O)NC(=O)[C@H](CC(C)C)NC(=O)[C@H](CC(C)C)NC(C)=O` [Ac-Leu-Leu-Nle-CHO] (Ac-Leu-Leu-[Nle]-aldehyde), the figures for the “Relative fluorescent intensity of FYVE-RFP (%)” value in the assay with FYVE-RFP (2 h), with FYVE-RFP (4 h) and in the assay on FYVE-RFP (8 h) were 72.86 ± 10.18%, 84.85 ± 2.83% and 88.42 ± 6.29%, respectively.
For the molecule `CN1CCN(C2=Nc3cc(Cl)ccc3Nc3ccccc32)CC1` [Clozapine], the entries for the “Relative fluorescent intensity of FYVE-RFP (%)” value in the assay on FYVE-RFP (2 h), with FYVE-RFP (4 h) and with FYVE-RFP (8 h) were 64.04 ± 2.94%, 74.79 ± 13.43% and 78.38 ± 1.35%, respectively.
On to `CN(C)C[C@H](O)Cn1c2ccc(Br)cc2c2cc(Br)ccc21` (racemic) [Wiskostatin], for which the results for the “Relative fluorescent intensity of FYVE-RFP (%)” value with FYVE-RFP (2 h), in the assay on FYVE-RFP (4 h) and in the assay on FYVE-RFP (8 h) were 267.90 ± 6.16%, 240.08 ± 4.26% and 131.93 ± 11.05%, respectively.
Take `CN(C)C(=O)C(CCN1CCC(O)(c2ccc(Cl)cc2)CC1)(c1ccccc1)c1ccccc1.Cl` [Loperamide]: the “Increase of endogenous LC3 II / LC3 II/LC3 I percentage” value with LC3 II is on record as “increase of endogenous LC3 II”.
